# Data published in patent publication US9682060B2, “Small molecules that induce intrinsic pathway apoptosis” (The Board of Trustees of the University of Illinois, priority 2015, dated 2017).
# “Also recorded” adds a separate entry of the source. Where two headings read alike, the source gives them in different places. Starred links: 1 amine or outer side, 2 acyl side, 3 side chain; linkers in the order of their positions; H or OH if unused. Positions of bridges follow the written chain, without caps; N, C: chain ends. Non-standard residues stand in square brackets, D forms with d. Residues, ends and D or L forms follow the SMILES beside them. Chains are numbered I, II in the order given. Actinocin(9to1) = Cc1c2oc3c(C)ccc(C(=O)[*:1])c3nc-2c(C(=O)[*:2])c(N)c1=O; NMeV = CN[C@H](C(=O)O)C(C)C; Sar = CNCC(=O)O
# Key:
# [1] = test system: U-937 cells; assay: Annexin V/PI cell viability analysis
# [2] = test system: cancer cell lines (HL-60, SK-MEL-5, U-937); assay: Initial screens against cancer cell lines; type: cell-based, Human; settings: cancer cells treated 1 hour, extensive washing to remove compound, read at 24-hour mark
# [3] = test system: U-937 cells; assay: Protection assays using small molecule inhibitors (protection from Raptinal, AV/PI); type: cell-based, Human; settings: U-937 cells pretreated 2 hours with agent (concentrations of Table 3), then 10 μM Raptinal 2 hours
# Procedure: Protection Assays Using Small Molecule Inhibitors.
# . The cells were then co-treated with Raptinal at 10 μM for 2 hours prior to analysis by propidium iodide/FITC-annexin V staining and flow cytometry.
# [4] = test system: U-937 cells; type: cell-based, Human; settings: 20 minute treatment, dihydroethidium, flow cytometry
# Procedure: Measurement of Cellular ROS Production.
# U-937 cells (1 mL of 5×10^5 cells/mL) in Hank's buffered salt solution (HBSS) containing 5 mM glucose were treated with DMSO, 2 or 10 μM Raptinal, 10 μM thapsigargin, 100 μM etoposide (1% DMSO final) and incubated in the presence of 5 μM dihydroethidium a 37° C., 5% CO2 incubator for 20 minutes. […]. The levels of ethidium were assessed by flow cytometry. Live cells were analyzed based on gating on the forward and side scatter properties and the geometric mean of ethidium staining was determined using the software FCS Express.
# [5] = test system: adherent cell lines (HOS, H1993, SK-MEL-5, MIA PaCa-2); assay: Adherent cell lines: cell death by AV/PI staining and immunoblots; type: cell-based, Human; settings: adherent cell lines; 10 μM (FIG. 1G)
# [6] = test system: isolated mitochondria (U-937 cells); assay: In vitro cytochrome c release from isolated mitochondria; type: biochemical, Human; settings: respiring and non-respiring conditions, 30 min, Western blot
# Procedure: In Vitro Cytochrome c Release from Isolated Mitochondria.
# U-937 cells (120×10^6) were washed twice in PBS and resuspended in 800 μL ice-cold lysis buffer (50 mM HEPES, 5 mM DTT, 5 mM PMSF, 25 mM MgCl2, protease cocktail inhibitor, pH 7.5) and the cells were passed through a 26 gauge needle 26 times using a 1 mL syringe until >95% cells were lysed as determined by trypan blue. Isolation buffer (0.25 M sucrose in lysis buffer pH 7.5) was added to the lysed cells (2.4 mL) and mixed by inversion. Debris was removed by centrifugation (500×g. 10 min at 4° C.) and the mitochondria in the supernatant were pelleted by centrifugation (10000×g, 5 min at 4° C.). The mitochondrial pellet was resuspended in washing buffer (2 mL of 50 mM HEPES, 250 mM KCl, 25 mM EDTA, pH 7.5) and incubated on ice for 2 min and centrifuged (12500×g, 5 min). The mitochondrial pellet was resuspended in either non-respiration (300 μL of 50 mM HEPES, 5 mM DTT, 5 mM PMSF, 25 mM MgCl2, protease inhibitor, 250 mM KCl, 25 mM EDTA, pH 7.5) or respiration buffer (300 μL of 50 mM HEPES, […], 5 mM ATP, 0.4 mM ADP, 25 mM sodium succinate, 10 mM potassium phosphate dibasic, pH 7.5). […]
# [7] = U-937 cells, 10 μM, time course AV/PI, based on data in FIG. 1F
Molecule,"Time to 50% death [1, 7]",protection from Raptinal-induced cell death [3],also measured
O=C1C(=O)N(Cc2ccc(Cl)c(Cl)c2)c2ccccc21 [AA2],>36 h,,
CC[C@@]1(O)C(=O)OCc2c1cc1n(c2=O)Cc2cc3ccccc3nc2-1 [Camptothecin],5 h,,
"N.N.[Cl][Pt][Cl] [Cisplatin, reference compound]",>36 h,,cell death after short treatment and washout [2]: do not have a similar effect
COc1cc2c(c(OC)c1OC)-c1ccc(OC)c(=O)cc1[C@@H](NC(C)=O)CC2 [Colchicine],,,Time to 50% death [1]: 15 h
O=S(=O)(O)c1cc(N=C=S)ccc1C=Cc1ccc(N=C=S)cc1S(=O)(=O)O [DIDS],,significant protection,
Cc1cc(=O)[nH]c2c1C(=O)c1c(C)cc(=O)n(C)c1C2=O [DNQ],6 h,,
COc1cccc2c1C(=O)c1c(O)c3c(c(O)c1C2=O)C[C@@](O)(C(=O)CO)C[C@@H]3O[C@H]1C[C@H](N)[C@H](O)[C@H](C)O1 [Doxorubicin],6 h,,
CN(NC(=O)CC(=O)NN(C)C(=S)c1ccccc1)C(=S)c1ccccc1 [Elesclomol],>36 h,,
"COc1cc([C@@H]2c3cc4c(cc3[C@@H](O[C@@H]3O[C@@H]5CO[C@@H](C)O[C@H]5[C@H](O)[C@H]3O)[C@H]3COC(=O)[C@H]23)OCO4)cc(OC)c1O [Etoposide, reference compound]",5 h,,production of reactive oxygen species (superoxide anion radicals) [4]: not
N#CC(C#N)=NNc1ccc(OC(F)(F)F)cc1 [FCCP],,significant to quantitative protection,
COC1=C2C[C@@H](C)C[C@H](OC)[C@H](O)[C@@H](C)/C=C(\C)[C@H](OC(N)=O)[C@@H](OC)/C=C\C=C(/C)C(=O)NC(=CC1=O)C2=O [Geldanamycin],>36 h,,
Cc1cc2c(C(C)C)c(O)c(O)c(C=O)c2c(O)c1-c1c(C)cc2c(C(C)C)c(O)c(O)c(C=O)c2c1O [Gossypol],36 h,,
CCOC(=O)C1=C(N)Oc2ccc(Br)cc2C1C(C#N)C(=O)OCC (stereo not shown) [HA-141],>36 h,,
CO[C@@]12[C@H](COC(N)=O)C3=C(C(=O)C(C)=C(N)C3=O)N1C[C@@H]1N[C@@H]12 [Mitomycin C],20 h,,
C=CCc1cccc(/C=N/NC(=O)CN2CCN(Cc3ccccc3)CC2)c1O [PAC-1],>36 h,,
"CC(=O)O[C@H]1C(=O)[C@@]2(C)[C@H]([C@H](OC(=O)c3ccccc3)[C@]3(O)C[C@H](OC(=O)[C@H](O)[C@@H](NC(=O)c4ccccc4)c4ccccc4)C(C)=C1C3(C)C)[C@]1(OC(C)=O)CO[C@@H]1C[C@@H]2O [Paclitaxel, reference compound]",18 h,,cell death after short treatment and washout [2]: do not have a similar effect

Molecule,"Time to 50% death [1, 7]",protection from Raptinal-induced cell death [3],also measured
CC(C)[C@H](NC(=O)c1ccc2ccccc2n1)C(=O)N[C@@H](CC(=O)O)C(=O)COc1c(F)cccc1F [Q-VD-OPh],,quantitatively blocked the loss in cell viability,
CO[C@H]1C[C@@H]2CC[C@@H](C)[C@@](O)(O2)C(=O)C(=O)N2CCCC[C@H]2C(=O)O[C@H]([C@H](C)C[C@@H]2CC[C@@H](O)[C@H](OC)C2)CC(=O)[C@H](C)/C=C(\C)[C@@H](O)[C@@H](OC)C(=O)[C@H](C)C[C@H](C)/C=C/C=C/C=C/1C [Rapamycin],>36 h,,
C=C(C)[C@H]1Cc2c(ccc3c2O[C@@H]2COc4cc(OC)c(OC)cc4[C@@H]2C3=O)O1 [Rotenone],20 h,significant to quantitative protection,
CN[C@@H](C)C(=O)N[C@H]1CCCC[C@H]2CC[C@@H](C(=O)N[C@@H](c3ccccc3)c3cn(CCCCc4ccc(CCCCn5cc([C@@H](NC(=O)[C@@H]6CC[C@@H]7CCCC[C@H](NC(=O)[C@H](C)NC)C(=O)N76)c6ccccc6)nn5)cc4)nn3)N2C1=O [SM-164],>36 h,,
CN[C@@H]1C[C@H]2O[C@@](C)([C@@H]1OC)n1c3ccccc3c3c4c(c5c6ccccc6n2c5c31)C(=O)NC4 [Staurosporine],5 h,,"time of apoptotic death ([1]; U-937 cells, 10 μM (FIG. 1F)): 6 to 12 h; time of apoptotic death [5]: > 24 h"
c1ccc(CN(CCN(Cc2ccccn2)Cc2ccccn2)Cc2ccccn2)nc1 [TPEN],12 h,,
O=C(CC(=O)C(F)(F)F)c1cccs1 [TTFA],,did not confer significant protection,
"C/C=C(/C)C(=O)O[C@H]1C(C)=C2[C@H]([C@@H]1OC(=O)CCCCCCC)[C@@](C)(OC(C)=O)C[C@H](OC(=O)CCC)[C@@]1(O)[C@H]2OC(=O)[C@@]1(C)O [Thapsigargin, reference compound]",14 h,,production of reactive oxygen species (superoxide anion radicals) [4]: rapid accumulation of superoxide anion radicals
CC[C@]1(O)C[C@H]2CN(CCc3c([nH]c4ccccc34)[C@@](C(=O)OC)(c3cc4c(cc3OC)N(C=O)[C@H]3[C@@](O)(C(=O)OC)[C@H](OC(C)=O)[C@]5(CC)C=CCN6CC[C@]43[C@@H]65)C2)C1 [Vincristine],14 h,,
"Cc1c2oc3c(C)ccc(C(=O)N[C@@H]4C(=O)N[C@H](C(C)C)C(=O)N5CCC[C@H]5C(=O)N(C)CC(=O)N(C)[C@@H](C(C)C)C(=O)O[C@@H]4C)c3nc-2c(C(=O)N[C@@H]2C(=O)N[C@H](C(C)C)C(=O)N3CCC[C@H]3C(=O)N(C)CC(=O)N(C)[C@@H](C(C)C)C(=O)O[C@@H]2C)c(N)c1=O [actinomycin D] (I: T[dV]P[Sar][NMeV] / II: T[dV]P[Sar][NMeV]; ester I:1-I:C, II:1-II:C; linker I:N-II:N via Actinocin(9to1))",,did not prevent or delay Raptinal-induced apoptosis,
COc1[nH]c(=O)c(C(=O)[C@@H](C)C[C@H](C)[C@@H](Cl)CCl)c(O)c1OC [atpenin A5],,did not confer significant protection,
C[C@@H]1C[C@@H]([C@H](O)CC2CC(=O)NC(=O)C2)C(=O)[C@@H](C)C1 [cycloheximide],,did not prevent or delay Raptinal-induced apoptosis,
CC[C@@H]1/C=C/C=C/C[C@H](C)[C@H](O)[C@](C)(O)C(=O)[C@H](C)[C@@H](O)[C@H](C)C(=O)[C@H](C)[C@@H](O)[C@H](C)/C=C/C(=O)O[C@H]2[C@@H](C)[C@@H](CC1)O[C@@]1(CC[C@@H](C)[C@@H](C[C@H](C)O)O1)[C@@H]2C [oligomycin A],,significant to quantitative protection,
Antimycin A,>36 h,significant to quantitative protection,
Tunicamycin,24 h,,
"Bid: known pro-apoptotic protein; full-length recombinant Bid from R&D Systems (protein, UniProt P55957 1-195, looked up, full-length, known pro-apoptotic protein; full-length recombinant Bid from R&D Systems) MDCEVNNGSSLRDECITNLLVFGFLQSCSDNSFRRELDALGHELPVLAPQWEGYDELQTDGNRSSHSRLGRIEADSESQEDIIRNIARHLAQVGDSMDRSIPPGLVNGLALQLRNTSRSEEDRNRDLATALEQLLQAYPRDMEKEKTMLVLALLLAKKVASHTPSLLRDVFHTTVNFINQNLRTYVRSLARNGMD",,,cytochrome c release from isolated mitochondria [6]: able to induce cytochrome c release; also recorded: capable of releasing cytochrome c under both conditions
